The results in this text go back to patent publication US20110178168A1, “COUMARIN COMPOUNDS FOR THE TREATMENT OF CARDIOVASCULAR DISEASES AND A PROCESS FOR PREPARING THE SAME” (priority 2008, published 2011).

Test [1] deals with T1, Calreticulin transacetylase (CRTAase) (Homo sapiens, UniProt P27797).
T1 sequence (P27797 18-417): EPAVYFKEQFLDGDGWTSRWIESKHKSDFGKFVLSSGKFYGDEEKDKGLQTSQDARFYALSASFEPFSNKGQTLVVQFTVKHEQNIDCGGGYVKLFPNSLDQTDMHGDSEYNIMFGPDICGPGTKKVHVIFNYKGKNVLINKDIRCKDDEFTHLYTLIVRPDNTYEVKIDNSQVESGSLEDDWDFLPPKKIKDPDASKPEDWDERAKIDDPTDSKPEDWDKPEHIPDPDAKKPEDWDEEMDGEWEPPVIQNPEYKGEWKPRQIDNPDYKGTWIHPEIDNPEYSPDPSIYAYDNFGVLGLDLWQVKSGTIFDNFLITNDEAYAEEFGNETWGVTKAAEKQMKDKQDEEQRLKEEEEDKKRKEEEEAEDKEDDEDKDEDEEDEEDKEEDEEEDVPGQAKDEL
The test can be described thus: TAase (calreticulin transacetylase) activity. It counts as biochemical. An excerpt: (§1) Platelet Nitric Oxide Synthase (NOS) is remakably activated by way of acetylation catalyzed by Calreticulin transacetylase (CRTAase) leading to robust enhancement of NO in platelets. Compounds of Formula I enhance NO in platelets. Due to this activity, these compounds enhance the NOS leading to enhancement of platelet NO which contributes to the antiplatelet action. […] They are effective in causing the inhibition of ADP induced as well as collagen induced platelet aggregation both invitro and exvivo.

In test [2] the test system is platelets. Briefly: ADP-induced platelet aggregation in vitro (platelet rich plasma). It counts as cell-based. An excerpt: A. Preparation of Platelet Rich, Plasma for the IN VITRO Studies
The test system of test [3] is intracellular nitric oxide level in platelets. Briefly: Enhancement of nitric oxide in platelets. It counts as cell-based.
From the text: Nitric oxide is known to mediate a number of pharmacological actions such as vasorelaxation, lowereing of blood pressure and inhibition of platelet aggregation. […] The specific acyl group attached to the coumarin derivative is attributed to the enhancement of intracellular nitric oxide level leading to the inhibition of ADP induced platelet aggregation.
as §1

The subject of test [4] is platelets. The test can be described thus: ADP-induced platelet aggregation ex vivo (platelet rich plasma). The class given is in vivo. An excerpt:
C. Preparation of Platelet Rich Plasma for the EX VIVO Studies

Consider `COC(=O)C(c1ccccc1Cl)N1CCc2sccc2C1` (centres unmarked), for which, in test [1], the “TAase activity (Units)” value is given as “Nil”. Further, the “ADP-induced platelet aggregation (% inhibition) IN VITRO” value in the test on platelets [2] is “Nil”. For the same molecule, the “Enhancement of nitric oxide (folds)” value in test [3] is recorded as “Nil”. Besides, the “ADP-induced platelet aggregation (% inhibition) EX VIVO” value in the test on platelets [4] came to 65%.
Regarding `CC(=O)Oc1ccccc1C(=O)O` [ASPIRIN, Aspirin], the “TAase activity (Units)” value in test [1] was “Nil”. In addition, the “ADP-induced platelet aggregation (% inhibition) IN VITRO” value in the test on platelets [2] is listed as “Nil”. The “Enhancement of nitric oxide (folds)” value in test [3] is recorded as “Nil”. Further, the “ADP-induced platelet aggregation (% inhibition) EX VIVO” value with platelets [4] amounted to 55%.
